Assay results taken from US20250136607A1 (REGOR PHARMACEUTICALS, INC., priority 2021, published 2025).
Like-named read-outs stand apart in the source and are kept apart here.

Target: Protein arginine deiminase 4 (PAD4) (Homo sapiens, UniProt Q9UM07)
Experiment: PAD4 ammonia release assay
Type: biochemical
How it was run: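 Ammonia release from BAEE substrate (2× mix 600 μM) was measured after 60 min at RT, following 15 min enzyme–compound preincubation (PAD4 2× 20 nM; pH 8.0 HEPES, 2 mM CaCl2, TCEP; 1.25% DMSO). Detection used OPA/DTT/EDTA for 120 min. % inhibition was taken versus reference-compound and DMSO controls; IC50 by four-parameter logistic fit.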

[1] = PAD4 ammonia release assay, BAEE substrate, 60 min at RT, read-out: Average IC50 Abs

Sequence of Protein arginine deiminase 4 (PAD4) (Q9UM07 whole entry): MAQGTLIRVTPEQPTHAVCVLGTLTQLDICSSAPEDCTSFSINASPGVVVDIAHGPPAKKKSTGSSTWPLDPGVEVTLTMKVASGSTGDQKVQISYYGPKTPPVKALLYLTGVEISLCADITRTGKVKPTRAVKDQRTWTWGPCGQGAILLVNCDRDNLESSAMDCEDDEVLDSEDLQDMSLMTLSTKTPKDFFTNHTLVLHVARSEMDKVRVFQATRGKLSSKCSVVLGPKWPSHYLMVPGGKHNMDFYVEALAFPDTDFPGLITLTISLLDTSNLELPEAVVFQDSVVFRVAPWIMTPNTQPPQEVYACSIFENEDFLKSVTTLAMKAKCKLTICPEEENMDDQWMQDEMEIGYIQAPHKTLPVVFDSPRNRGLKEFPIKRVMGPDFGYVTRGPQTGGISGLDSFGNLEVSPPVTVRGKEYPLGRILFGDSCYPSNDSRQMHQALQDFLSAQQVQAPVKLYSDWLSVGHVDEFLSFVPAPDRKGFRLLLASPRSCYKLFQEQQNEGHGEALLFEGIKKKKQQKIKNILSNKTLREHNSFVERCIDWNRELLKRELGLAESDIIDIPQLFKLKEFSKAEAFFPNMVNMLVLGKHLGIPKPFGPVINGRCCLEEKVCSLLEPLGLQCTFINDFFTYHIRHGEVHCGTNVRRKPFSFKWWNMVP

IC50 [1] [nM] | IC50 (PAD4 activity comparison, read-out: PAD4 Ammonia assay IC50) [nM] | Structure (SMILES)
100 to 500 | – | CCC1CN(CCCO)c2cccc3cc(-c4nc5cc(C(=O)N6C[C@H](N)C[C@@H](F)C6)cc(F)c5n4CC)n1c23 (stereo partly drawn) [Example 99, ((3R,5R)-3-amino-5-fluoropiperidin-1-yl)(1-ethyl-2-(3-ethyl-1-(3-hydroxypropyl)-2,3-dihydro-1H-pyrrolo[1,2,3-de]quinoxalin-5-yl)-7-fluoro-1H-benzo[d]imidazol-5-yl)methanone]
100 to 500 | 207 | CCC1CNc2cccc3cc(-c4nc5cc(C(=O)N6C[C@H]7CC[C@@H]6[C@@H]7N)cc(OC)c5n4C)n1c23 (stereo partly drawn) [Example 102, ((1R,4R,7R)-7-amino-2-azabicyclo[2.2.1]heptan-2-yl)(2-(3-ethyl-2,3-dihydro-1H-pyrrolo[1,2,3-de]quinoxalin-5-yl)-7-methoxy-1-methyl-1H-benzo[d]imidazol-5-yl)methanone]
500 to 5000 | – | CC(C)[C@@H]1CNc2cccc3cc(-c4nc5cc(C(=O)N6C[C@H]7CC[C@@H]6[C@@H]7N)cc(F)c5n4C)n1c23 [Example 105, ((1R,4R,7R)-7-amino-2-azabicyclo[2.2.1]heptan-2-yl)(7-fluoro-2-((R)-3-isopropyl-2,3-dihydro-1H-pyrrolo[1,2,3-de]quinoxalin-5-yl)-1-methyl-1H-benzo[d]imidazol-5-yl)methanone]
> 5000 | – | Cn1c(-c2cc3cc(C#N)cc4c3n2[C@H](C2CC2)CN4)nc2cc(C(=O)N3C[C@H]4CC[C@@H]3[C@@H]4N)cc(F)c21 [Example 117, (R)-5-(5-((1R,4R,7R)-7-amino-2-azabicyclo[2.2.1]heptane-2-carbonyl)-7-fluoro-1-methyl-1H-benzo[d]imidazol-2-yl)-3-cyclopropyl-2,3-dihydro-1H-pyrrolo[1,2,3-de]quinoxaline-8-carbonitrile]
100 to 500 | – | Cn1c(-c2cc3cc(C#N)cc4c3n2[C@@H](C2CC2)CN4)nc2cc(C(=O)N3C[C@H]4CC[C@@H]3[C@@H]4N)cc(F)c21 [Example 118, (S)-5-(5-((1R,4R,7R)-7-amino-2-azabicyclo[2.2.1]heptane-2-carbonyl)-7-fluoro-1-methyl-1H-benzo[d]imidazol-2-yl)-3-cyclopropyl-2,3-dihydro-1H-pyrrolo[1,2,3-de]quinoxaline-8-carbonitrile]
> 5000 | – | Cn1c(-c2cc3c(C#N)ccc4c3n2[C@H](C2CC2)CN4)nc2cc(C(=O)N3C[C@H]4CC[C@@H]3[C@@H]4N)cc(F)c21 [Example 119, (R)-5-(5-((1R,4R,7R)-7-amino-2-azabicyclo[2.2.1]heptane-2-carbonyl)-7-fluoro-1-methyl-1H-benzo[d]imidazol-2-yl)-3-cyclopropyl-2,3-dihydro-1H-pyrrolo[1,2,3-de]quinoxaline-7-carbonitrile]
> 5000 | – | Cn1c(-c2cc3c(C#N)ccc4c3n2[C@@H](C2CC2)CN4)nc2cc(C(=O)N3C[C@H]4CC[C@@H]3[C@@H]4N)cc(F)c21 [Example 120, (S)-5-(5-((1R,4R,7R)-7-amino-2-azabicyclo[2.2.1]heptane-2-carbonyl)-7-fluoro-1-methyl-1H-benzo[d]imidazol-2-yl)-3-cyclopropyl-2,3-dihydro-1H-pyrrolo[1,2,3-de]quinoxaline-7-carbonitrile]
≤ 100 | – | Cn1c(-c2cc3ccc(C(F)(F)F)c4c3n2C(C2CC2)CN4)nc2cc(C(=O)N3C[C@H]4CC[C@@H]3[C@@H]4N)cc(F)c21 (stereo partly drawn) [Example 121, [(1R,4R,7R)-7-amino-2-azabicyclo[2.2.1]heptan-2-yl]-[2-[11-cyclopropyl-7-(trifluoromethyl)-1,9-diazatricyclo[6.3.1.0^4,12]dodeca-2,4,6,8(12)-tetraen-2-yl]-7-fluoro-1-methyl-benzimidazol-5-yl]methanone]
500 to 5000 | – | CCC1C(=O)Nc2c(Cl)ccc3cc(-c4nc5cc(C(=O)N6C[C@H]7CC[C@@H]6[C@@H]7N)cc(F)c5n4C)n1c23 (stereo partly drawn) [Example 124, 5-(5-((1R,4R,7R)-7-amino-2-azabicyclo[2.2.1]heptane-2-carbonyl)-7-fluoro-1-methyl-1H-benzo[d]imidazol-2-yl)-9-chloro-3-ethyl-1H-pyrrolo[1,2,3-de]quinoxalin-2(3H)-one]
> 5000 | – | CCC1CNc2c(Cl)ccc3cc(-c4nc5cc(C(=O)N6C[C@H]7CC[C@@H]6[C@@H]7N)cc(F)c5n4C)n1c23 (stereo partly drawn) [Example 125, ((1R,4R,7R)-7-amino-2-azabicyclo[2.2.1]heptan-2-yl)(2-(9-chloro-3-ethyl-2,3-dihydro-1H-pyrrolo[1,2,3-de]quinoxalin-5-yl)-7-fluoro-1-methyl-1H-benzo[d]imidazol-5-yl)methanone]
500 to 5000 | – | CCC1C(=O)Nc2c(F)ccc3cc(-c4nc5cc(C(=O)N6C[C@H]7CC[C@@H]6[C@@H]7N)cc(F)c5n4C)n1c23 (stereo partly drawn) [Example 126, 5-(5-((1R,4R,7R)-7-amino-2-azabicyclo[2.2.1]heptane-2-carbonyl)-7-fluoro-1-methyl-1H-benzo[d]imidazol-2-yl)-3-ethyl-9-fluoro-1H-pyrrolo[1,2,3-de]quinoxalin-2(3H)-one]
500 to 5000 | – | CCC1C(=O)Nc2c(C#N)ccc3cc(-c4nc5cc(C(=O)N6C[C@H]7CC[C@@H]6[C@@H]7N)cc(F)c5n4C)n1c23 (stereo partly drawn) [Example 127, 5-(5-((1R,4R,7R)-7-amino-2-azabicyclo[2.2.1]heptane-2-carbonyl)-7-fluoro-1-methyl-1H-benzo[d]imidazol-2-yl)-3-ethyl-2-oxo-2,3-dihydro-1H-pyrrolo[1,2,3-de]quinoxaline-9-carbonitrile]
100 to 500 | – | CCC1CNc2c(C#N)ccc3cc(-c4nc5cc(C(=O)N6C[C@H]7CC[C@@H]6[C@@H]7N)cc(F)c5n4C)n1c23 (stereo partly drawn) [Example 128, 5-(5-((1R,4R,7R)-7-amino-2-azabicyclo[2.2.1]heptane-2-carbonyl)-7-fluoro-1-methyl-1H-benzo[d]imidazol-2-yl)-3-ethyl-2,3-dihydro-1H-pyrrolo[1,2,3-de]quinoxaline-9-carbonitrile]
100 to 500 | – | CCC1C(=O)Nc2cccc3cc(-c4nc5cc(C(=O)N6C[C@H]7CC[C@@H]6[C@@H]7N)cc(F)c5n4C)n1c23 (stereo partly drawn) [Example 129, 5-(5-((1R,4R,7R)-7-amino-2-azabicyclo[2.2.1]heptane-2-carbonyl)-7-fluoro-1-methyl-1H-benzo[d]imidazol-2-yl)-3-ethyl-1H-pyrrolo[1,2,3-de]quinoxalin-2(3H)-one]
100 to 500 | – | CCC1CNc2c(F)ccc3cc(-c4nc5cc(C(=O)N6C[C@H]7CC[C@@H]6[C@@H]7N)cc(F)c5n4C)n1c23 (stereo partly drawn) [Example 131, ((1R,4R,7R)-7-amino-2-azabicyclo[2.2.1]heptan-2-yl)(2-(3-ethyl-9-fluoro-2,3-dihydro-1H-pyrrolo[1,2,3-de]quinoxalin-5-yl)-7-fluoro-1-methyl-1H-benzo[d]imidazol-5-yl)methanone]
100 to 500 | – | CCC1CNc2c(C)ccc3cc(-c4nc5cc(C(=O)N6C[C@H]7CC[C@@H]6[C@@H]7N)cc(F)c5n4C)n1c23 (stereo partly drawn) [Example 132, ((1R,4R,7R)-7-amino-2-azabicyclo[2.2.1]heptan-2-yl)(2-(3-ethyl-9-methyl-2,3-dihydro-1H-pyrrolo[1,2,3-de]quinoxalin-5-yl)-7-fluoro-1-methyl-1H-benzo[d]imidazol-5-yl)methanone]
> 5000 | – | CC[C@H]1[C@H](C)Nc2cccc3cc(-c4nc5cc(C(=O)N6C[C@H]7CC[C@@H]6[C@@H]7N)cc(F)c5n4C)n1c23 [Example 134, trans-((1R,4R,7R)-7-amino-2-azabicyclo[2.2.1]heptan-2-yl)(2-(3-ethyl-2-methyl-2,3-dihydro-1H-pyrrolo[1,2,3-de]quinoxalin-5-yl)-7-fluoro-1-methyl-1H-benzo[d]imidazol-5-yl)methanone]
> 5000 | – | CCC1CNc2nccc3cc(-c4nc5cc(C(=O)N6C[C@H]7CC[C@@H]6[C@@H]7N)cc(F)c5n4C)n1c23 (stereo partly drawn) [Example 135, ((1R,4R,7R)-7-amino-2-azabicyclo[2.2.1]heptan-2-yl)(2-(3-ethyl-4,5-dihydro-3H-2a, 5,6-triazaacenaphthylen-2-yl)-7-fluoro-1-methyl-1H-benzo[d]imidazol-5-yl)methanone]
> 5000 | – | CCC1CNc2nccc3cc(-c4nc5cc(C(=O)N6C[C@H](N)C[C@@H](F)C6)cc(F)c5n4C)n1c23 (stereo partly drawn) [Example 136, ((3R,5R)-3-amino-5-fluoropiperidin-1-yl)(2-(3-ethyl-4,5-dihydro-3H-2a, 5,6-triazaacenaphthylen-2-yl)-7-fluoro-1-methyl-1H-benzo[d]imidazol-5-yl)methanone]
500 to 5000 | – | CCC1C(=O)Nc2cccc3cc(-c4nc5cc(C(=O)N6C[C@H]7CC[C@@H]6[C@@H]7N)cnn5c4C)n1c23 (stereo partly drawn) [Example 137, 2-[7-[(1R,4R,7R)-7-amino-2-azabicyclo[2.2.1]heptane-2-carbonyl]-3-methyl-imidazo[1,2-b]pyridazin-2-yl]-11-ethyl-1,9-diazatricyclo[6.3.1.04,12]dodeca-2,4,6,8(12)-tetraen-10-one]
500 to 5000 | – | CCC1CNc2cccc3cc(-c4nc5cc(C(=O)N6C[C@H]7CC[C@@H]6[C@@H]7N)cnn5c4C)n1c23 (stereo partly drawn) [Example 138, [(1R,4R,7R)-7-amino-2-azabicyclo[2.2.1]heptan-2-yl]-[2-(11-ethyl-1,9-diazatricyclo[6.3.1.0^4,12]dodeca-2,4,6,8(12)-tetraen-2-yl)-3-methyl-imidazo[1,2-b]pyridazin-7-yl]methanone]
500 to 5000 | – | CCC1CC(=O)c2cccc3cc(-c4nc5cc(C(=O)N6C[C@H]7CC[C@@H]6[C@@H]7N)cc(F)c5n4C)n1c23 (stereo partly drawn) [Example 139, 2-(5-((1R,4R,7R)-7-amino-2-azabicyclo[2.2.1]heptane-2-carbonyl)-7-fluoro-1-methyl-1H-benzo[d]imidazol-2-yl)-4-ethyl-4,5-dihydro-6H-pyrrolo[3,2,1-ij]quinolin-6-one]
